In PMC10373461, “Discovery of a Hidden Trypanosoma cruzi Spermidine Synthase Binding Site and Inhibitors through In Silico, In Vitro, and X-ray Crystallography” (ACS Omega, 2023):

Experiments:
[1] = target: T1, Trypanosoma cruzi spermidine synthase (TcSpdSyn) (Trypanosoma cruzi, UniProt Q4DA73); test: X-ray co-crystal structure; SSAT1-coupled enzyme inhibition assay (hydrochloride salt); format: biochemical
T1 construct: gene Tc00.1047053510339.50
T1 sequence (Q4DA73 1-296): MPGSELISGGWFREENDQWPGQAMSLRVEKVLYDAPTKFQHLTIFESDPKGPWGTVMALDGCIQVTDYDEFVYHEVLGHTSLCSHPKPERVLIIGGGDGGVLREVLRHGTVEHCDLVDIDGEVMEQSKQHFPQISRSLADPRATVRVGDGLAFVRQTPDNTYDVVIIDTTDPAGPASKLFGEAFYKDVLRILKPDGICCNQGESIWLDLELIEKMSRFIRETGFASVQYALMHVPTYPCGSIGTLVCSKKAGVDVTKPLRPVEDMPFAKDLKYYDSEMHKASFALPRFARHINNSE

[2] = target: T1, Trypanosoma cruzi spermidine synthase (TcSpdSyn); test: X-ray co-crystal structure; SSAT1-coupled enzyme inhibition assay; format: biochemical

SMILES | IC50 [1] [µM] | IC50 [2] [µM]
COc1ccc(Nc2ccnc3ccccc23)cc1 [compound 2] | 43.4 | –
COc1ccc(C2=N[C@H](C)CN2)c(O)c1 [compound 1] | – | 82.3
